From US6642392B1 (priority 1997, dated 2003)
Like-named read-outs stand apart in the source and are kept apart here.

Legend:
Format in all cases: in vivo
Phytophthora infestans = details: for Test D disease control rating: tomato late blight; for Test D disease control rating (100 = 100% disease control, 0 = no disease control): tomato seedlings sprayed to run-off, inoculated the following day, rating relative to controls, unmarked compounds (standard test rate)
Botrytis cinerea = test: Test E: gray mold, preventive spray on cucumber seedlings; details: for Test E disease control rating: gray mold on cucumber; for Test E disease control rating (100 = 100% disease control, 0 = no disease control): cucumber seedlings sprayed to run-off, inoculated the following day, rating relative to controls, unmarked compounds (standard test rate)
Summary of the method: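 Compounds in 3% acetone were suspended with 250 ppm Trem 014 surfactant and sprayed to run-off on cucumber seedlings. B. cinerea spores were inoculated next day, then 48 h saturated humidity at 20° C and 5 days at 20° C. Disease control rated 0–100% versus controls.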

Puccinia recondita = test: Test B: wheat leaf rust, preventive spray on wheat seedlings; details: for Test B disease control rating: wheat leaf rust; for Test B disease control rating (100 = 100% disease control, 0 = no disease control): wheat seedlings sprayed to run-off, inoculated the following day, rating relative to controls, unmarked compounds (standard test rate)
Summary of the method: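 Wheat seedlings were sprayed to run-off with compound (3% acetone, 250 ppm Trem 014), then inoculated with P. recondita spores the next day. They were held 24 h saturated at 20 °C, then 6 days at 20 °C. Ratings are 0–100% disease control versus controls.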

Pyricularia oryzae = details: for Test C disease control rating: rice blast; for Test C disease control rating (100 = 100% disease control, 0 = no disease control): rice seedlings sprayed to run-off, inoculated the following day, rating relative to controls, unmarked compounds (standard test rate)
[1] = tested on: Eiysiphe graminis f. sp. tritici; test: Test A: wheat powdery mildew, preventive spray on wheat seedlings; details: for Test A disease control rating: wheat powdery mildew; for Test A disease control rating (100 = 100% disease control, 0 = no disease control): wheat seedlings sprayed to run-off, inoculated the following day, rating relative to controls, unmarked compounds (standard test rate)
Summary of the method: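 Compounds (3% acetone, 250 ppm Trem 014) sprayed to run-off on wheat seedlings, inoculated next day with spore dust. Incubated 7 days at 20° C before disease rating, 0–100% control relative to untreated controls.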

[2] = 100 = 100% disease control, 0 = no control, unmarked entries (standard test concentration)
[3] = 100 = 100% disease control, 0 = no control relative to controls, unmarked entries (standard test concentration)

Row | SMILES | Test D disease control rating (Phytophthora infestans; [2]) | Test E disease control rating (Botrytis cinerea; [2]) | Test B disease control rating (Puccinia recondita; [2]) | Test C disease control rating (Pyricularia oryzae; [2]) | Test A disease control rating [1, 3] | further results
1 | CC(COc1ccccc1)NC(=O)C(C#N)C(C)(C)C (single isomer, unassigned) [1b] | 0% | 0% | 11% | 74% | 34% | 
2 | CC(CCn1cc(Cl)cc1C#N)NC(=O)C(C#N)C(C)C(C)(C)C (mixture of isomers) [compound 74] | 23% | 0% | 86% | 53% | 0% | 
3 | C[C@H](COc1ccccc1)NC(=O)C(C#N)C(C)(C)C (single isomer, unassigned) [1d] | 0% | 0% | 0% | 100% | 92% | 
4 | CC(COc1ccc(C(C)(C)C)cc1)NC(=O)C(C#N)C(C)(C)C (mixture of isomers) [compound 24] | 66% | 94% | 0% | 53% | 62% | 
5 | CCCc1cccc(C#N)c1OCC(C)NC(=O)C(C#N)C(C)(C)C (mixture of isomers) [compound 205] | 0% | 0% | 68% | 74% | 0% | 
6 | CCC1(C(=O)NC(C)COn2c(C#N)cc(Cl)c2Cl)C(C)C1(Cl)Cl (mixture of isomers) [compound 139] | 0% | 0% | 0% | 91% | 71% | 
7 | CC(COc1cc(Br)ccc1C#N)NC(=O)C(C#N)C(C)(C)C (mixture of isomers) [compound 44] | 89% | 0% | 0% | 94% | 0% | 
8 | C[C@H](COc1ccc(Cl)c(Cl)c1)NC(=O)C(C#N)C(C)(C)C (single isomer, unassigned) [181b] | 0% | 90% | 0% | 74% | 37% | 
9 | Cc1ccc(OC[C@@H](C)NC(=O)C(C#N)C(C)(C)C)c(Cl)c1 (single isomer, unassigned) [14a] | 45% | 58% | 0% | 94% | 0% | 
10 | C=CC(C)(C)C(C#N)C(=O)N[C@H](C)COc1cc(F)ccc1Cl (single isomer, unassigned) [192b] | 0% | 0% | 0% | 100% | 0% | 
11 | C[C@H](COc1ccccc1Br)NC(=O)C(C#N)C(C)(C)C (single isomer, unassigned) [8c] | 0% | 0% | 0% | 100% | 0% | 
12 | CCC1(C(=O)NC(C)COc2ccccc2C(C)(C)C)C(C)C1(Cl)Cl (centres unmarked) [compound 100] |  |  |  |  |  | Test D disease control rating (Phytophthora infestans; tested at 40 ppm): 0%; Test E disease control rating (Botrytis cinerea; tested at 40 ppm): 0%; Test B disease control rating (Puccinia recondita; tested at 40 ppm): 0%; Test C disease control rating (Pyricularia oryzae; tested at 40 ppm): 0%; Test A disease control rating ([1]; tested at 40 ppm): 52%
13 | CC(COc1ccc(Br)cc1F)NC(=O)C(C#N)C(C)(C)C (mixture of isomers) [compound 38] | 0% | 22% | 28% | 53% | 0% | 
14 | CCC1(C(=O)NC(C)COc2c(C)cccc2C#N)C(C)C1(Cl)Cl (mixture of isomers) [compound 259] |  |  |  |  |  | Test D disease control rating (100 = 100% disease control, 0 = no disease control) (Phytophthora infestans): 0%; Test E disease control rating (100 = 100% disease control, 0 = no disease control) (Botrytis cinerea): 48%; Test B disease control rating (100 = 100% disease control, 0 = no disease control) (Puccinia recondita): 0%; Test C disease control rating (100 = 100% disease control, 0 = no disease control) (Pyricularia oryzae): 91%; Test A disease control rating (100 = 100% disease control, 0 = no disease control) [1]: 84%
15 | CCC1(C(=O)NC(C)COc2ccc(F)c(Cl)c2)C(C)C1(Cl)Cl (centres unmarked) [compound 232] |  |  |  |  |  | Test D disease control rating (100 = 100% disease control, 0 = no disease control) (Phytophthora infestans): 35%; Test E disease control rating (100 = 100% disease control, 0 = no disease control) (Botrytis cinerea): 69%; Test B disease control rating (100 = 100% disease control, 0 = no disease control) (Puccinia recondita): 0%; Test C disease control rating (100 = 100% disease control, 0 = no disease control) (Pyricularia oryzae): 100%; Test A disease control rating (100 = 100% disease control, 0 = no disease control) [1]: 62%
16 | CC(COc1ccccc1CC#N)NC(=O)C(C#N)C(C)(C)C (mixture of isomers) [compound 16] | 48% | 0% | 0% | 97% | 0% | 
17 | C[C@H](COc1cc(F)cc(F)c1F)NC(=O)C(C#N)C(C)(C)C (single isomer, unassigned) [168a] | 0% | 58% | 0% | 74% | 76% | 
18 | CC(COc1ccccc1C#N)NC(=O)C(C#N)C(C)(C)C (mixture of isomers) [13a] | 0% | 0% | 0% | 51% | 34% | 
19 | C#CC(C)(C)C(C#N)C(=O)NC(C)COc1cc(Cl)ccc1Cl (mixture of isomers) [compound 212] | 23% | 0% | 0% | 100% | 0% | 
20 | CCC1(C(=O)NC(C)COc2cccc(CF)c2)C(C)C1(Cl)Cl (mixture of isomers) [compound 93] |  |  |  |  |  | Test D disease control rating (Phytophthora infestans; tested at 40 ppm): 19%; Test E disease control rating (Botrytis cinerea; tested at 40 ppm): 0%; Test B disease control rating (Puccinia recondita; tested at 40 ppm): 0%; Test C disease control rating (Pyricularia oryzae; tested at 40 ppm): 85%; Test A disease control rating ([1]; tested at 40 ppm): 57%
21 | C=CCc1ccccc1OCC(C)NC(=O)C1(CC)C(C)C1(Cl)Cl (mixture of isomers) [101a] | 46% | 22% | 0% | 0% | 0% | 
22 | CCC1(C(=O)NC(C)COc2c(F)c(F)cc(F)c2F)C(C)C1(Cl)Cl (centres unmarked) [compound 249] |  |  |  |  |  | Test D disease control rating (100 = 100% disease control, 0 = no disease control) (Phytophthora infestans): 0%; Test E disease control rating (100 = 100% disease control, 0 = no disease control) (Botrytis cinerea): 0%; Test B disease control rating (100 = 100% disease control, 0 = no disease control) (Puccinia recondita): 0%; Test C disease control rating (100 = 100% disease control, 0 = no disease control) (Pyricularia oryzae): 94%; Test A disease control rating (100 = 100% disease control, 0 = no disease control) [1]: 0%
23 | CC(COc1cccc(Cl)c1C#N)NC(=O)C(C#N)C(C)C(C)(C)C (mixture of isomers) [compound 64] | 2% | 0% | 0% | 53% | 0% | 
24 | C[C@H](COc1cc(Cl)c(Cl)cc1Cl)NC(=O)C(C#N)C(C)(C)C (single isomer, unassigned) [174a] | 54% | 0% | 0% | 31% | 0% | 
25 | C[C@H](COc1ccc(F)c(F)c1)NC(=O)C(C#N)C(C)(C)C (single isomer, unassigned) [30b] | 0% | 0% | 27% | 97% | 77% | 
26 | CCC1(C(=O)NC(C)COc2ccccc2CF)C(C)C1(Cl)Cl (mixture of isomers) [compound 92] |  |  |  |  |  | Test D disease control rating (Phytophthora infestans; tested at 40 ppm): 0%; Test E disease control rating (Botrytis cinerea; tested at 40 ppm): 0%; Test B disease control rating (Puccinia recondita; tested at 40 ppm): 0%; Test C disease control rating (Pyricularia oryzae; tested at 40 ppm): 0%; Test A disease control rating ([1]; tested at 40 ppm): 60%
27 | C[C@H](COc1cc(Cl)cc(Cl)c1Cl)NC(=O)C(C#N)C(C)(C)C (single isomer, unassigned) [170a] | 0% | 58% | 0% | 53% | 35% | 
28 | CCC1(C(=O)NC(C)COc2ccccc2SC(F)(F)C(F)F)C(C)C1(Cl)Cl (mixture of isomers) [compound 91] | 0% | 0% | 0% | 53% | 74% | 
